Source: US12643867B2, “Compositions and uses thereof” (University of Virginia Patent Foundation, priority 2017, dated 2026)
Like-named read-outs stand apart in the source and are kept apart here.

Biological target: T1, recombinant DGKα (Rattus norvegicus, UniProt P51556)
T1 construct: expressed in transfected cells; host or cells: HEK293T (SILAC HEK293T for LC-MS)
Experiment: ADP-glo DAG phosphorylation substrate assay
Format: biochemical
Experimental: The ADP-Glo DAG phosphorylation substrate assay was adapted from Sato et al (Sato et al., 2013). Transfected HEK cells expressing recombinant FLAG-DGKA were harvested in DPBS and centrifuged at 1400×g for 3 min. Supernatant was removed and 1 mL Lysis Buffer (50 mM HEPES (pH 7.2), 150 mM NaCl, 5 mM MgCL2, 1 mM DTT, 1 mM phenylmethylsulfonyl […], Phosphatase Inhibitor Cocktail 2 (Sigma-Aldrich), and EDTA-Free Protease Inhibitor Mini Tablets (Pierce)) was added and cells re-suspended. Solutions were sonicated (3×1 sec pulse, 20% amplitude) and then centrifuged at 400×g for 5 min. Supernatant was separated and protein concentrations were measured using the Bio-Rad DC protein assay and diluted in Lysis Buffer as appropriate. Samples were stored at −80° C. until use.
Micelles were prepared from lipid stocks as follows: Reaction Buffer (50 mM MOPS (pH 7.4). 1 mM DTT. 100 mM NaCl. 20 mM NaF, and |μM CaCl2)) was prepared in ddH2O. […] 1,2-dioleoyl-sn-glycerol (DG) and 1.2-dioleoyl-sn-glycero-3-phospho-L-serine (DOPS) in chloroform were mixed and then dried under nitrogen. Triton Buffer was added to the dried lipids to a final concentration of 10 mM DG and 8 mM DOPS. This solution was incubated at room temperature for 5 min with gentle shaking, followed by sonication (3×1 sec pulse, 20% amplitude). The micelles were then diluted 4-fold in reaction buffer to yield the final micelle buffer. […] of lysate was aliquoted into each well of a 96 well plate, followed by micelle buffer to a final volume of 20 μL. 19 μL of this mix was added to 1 μL of DMSO or inhibitor solution and incubated at 30° C. for 30 min. After incubation, 5 μL of reaction initiator was added to each well and mixed thoroughly, followed by aliquoting 5 μL of each reaction mixture to a 96-well half area black polystyrene plate and incubated at 30° C. for 30 min. At this point the procedure for the ADP-GloTM assay (Promega) was performed. 5 μL of ‘ADP-Glo Reagent’ was added to each well, mixed thoroughly, and allowed to incubate at 25° C. for 40 min. Then 10 μL of the ‘Kinase Detection Reagent’ was added to each well, mixed thoroughly, and allowed to incubate at 25° C. for 40 min. Luminescence was measured with no filter and an integration time of 1 sec per well on a BMG Labtech CLARIOstar plate reader.
The percentage of enzyme activity remaining was determined by comparing integrated band intensities or luminescence of inhibitor—with DMSO-treated samples for gel-based chemical proteomic or ADP-glo assays, respectively. For both chemical proteomic and ADP-glo methods, nonlinear regression analysis was used to determine the IC50 values from a dose-response curve generated using GraphPad Prism. Data are shown as mean±s.e.m. Determination of significance was performed by one-way ANOVA. All statistical analyses were performed using GraphPad Prism.

[1] = DGKα-HEK293T proteome, read-out: IC50, DGKα inhibition, DAG phosphorylation substrate assay
[2] = read-out: 95% confidence intervals for IC50 values, substrate assay

T1 sequence (P51556 whole entry): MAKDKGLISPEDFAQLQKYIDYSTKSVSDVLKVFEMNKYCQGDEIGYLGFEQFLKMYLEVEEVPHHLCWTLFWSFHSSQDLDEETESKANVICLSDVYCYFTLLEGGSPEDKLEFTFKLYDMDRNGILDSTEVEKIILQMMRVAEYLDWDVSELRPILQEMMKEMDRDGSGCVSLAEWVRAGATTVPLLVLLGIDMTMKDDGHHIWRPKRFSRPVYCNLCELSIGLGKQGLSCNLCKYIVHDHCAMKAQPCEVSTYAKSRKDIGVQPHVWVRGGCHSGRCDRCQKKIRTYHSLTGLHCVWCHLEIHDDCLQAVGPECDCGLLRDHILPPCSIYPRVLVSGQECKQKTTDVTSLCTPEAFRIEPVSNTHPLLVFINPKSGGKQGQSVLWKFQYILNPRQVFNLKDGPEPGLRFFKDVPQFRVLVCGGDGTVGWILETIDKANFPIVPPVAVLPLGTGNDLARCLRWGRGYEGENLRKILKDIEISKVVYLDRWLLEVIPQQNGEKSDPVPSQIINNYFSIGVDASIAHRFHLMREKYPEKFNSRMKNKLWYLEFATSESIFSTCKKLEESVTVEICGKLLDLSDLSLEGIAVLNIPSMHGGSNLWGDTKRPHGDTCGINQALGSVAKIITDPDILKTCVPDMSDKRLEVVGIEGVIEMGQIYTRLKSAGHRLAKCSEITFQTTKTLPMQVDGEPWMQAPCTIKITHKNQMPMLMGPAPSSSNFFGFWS

SMILES | activity against DGKα in the substrate assay (100 μM) | blockade of recombinant DGKα activity (100 μM compound) | blockade of DGKα activity (100 μM, from substrate- and chemical proteomic-assays) | IC50 [1] | IC50 [2]
O=C(c1ccc(F)cc1)C1CCN(CCn2c(=O)[nH]c3ccccc3c2=O)CC1 [Ketanserin] | negligible activity | – | – | – | –
Cc1nc2sccn2c(=O)c1CCN1CCC(=C(c2ccc(F)cc2)c2ccc(F)cc2)CC1 [Ritanserin] | – | ~80% | ~70% | 25 µM | 20 to 30 µM
Fc1ccc(C(=C2CCNCC2)c2ccc(F)cc2)cc1 [RF001, 4-(Bis(4-fluorophenyl)methylene) piperidine] | – | – | – | 223 µM | 120 to 414 µM
